Series [1] relates to A375 human melanoma cells. Briefly: Karyomorphosis test. Conditions: test compound 10 μM and 1 μM, 48 hr, nuclei stained with propidium iodide. The format is cell-based. Here is the method: A375 human melanoma cells (2×10^4) (obtained from Japanese Foundation for Cancer Research) were incolulated on a culture slide (manufactured by Falcon) and were cultured at 37° C. After the elapse of 5 hr from the initiation of the cultivation, the test compound was added to 10 μM and 1 μM, and the cultivation was continued for additional 48 hr. After the fixation of cells, 50 μg/ml propidium iodide solution containing ribonuclease (200 μg/ml) was added to stain nuclei. The stained nuclei were observed under a fluorescent microscope to analyze the nuclei for abnormality of karyomorphosis.

For the next series, the system named is Human glioma cells GL07. Briefly: Antitumor effect on human glioma cells (GL07) transplanted into nude mice. The format is in vivo. Particulars: GL07, oral, 20 mg/kg once a day for 9 days. In a few lines:
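GL07 xenografts in nude mice, grouped (n=4) at ~100 mm^3 tumor volume. Test compound 20 mg/kg p.o. or i.p. once daily for 9 days; vehicle controls. TGIR = (1−Tx/Cx)×100 from tumor volumes normalized to day-of-start volume = 1.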

For series [2], the system named is activation of MAPK within vascular endothelial cells induced by VEGF stimulation. Briefly: Inhibitory activity against activation of MAPK within vascular endothelial cells induced by VEGF stimulation. Conditions: human funicular venous vascular endothelial cells, VEGF 50 ng/ml, phosphorylated MAPK by immunoblotting. The format is cell-based. In a few lines:
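Serum-starved (0.5% FCS, 24 h) human umbilical vein endothelial cells pretreated with compound 1 h at 37 °C, then stimulated with 50 ng/ml recombinant human VEGF for 8 min.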
(In general: A western blot detects proteins with antibodies after separation by electrophoresis.)

24 molecules from patent US7169789B2 (Kirin Beer Kabushiki Kaisha, priority 1999, dated 2007) can be followed below.

As usually defined, the IC50 is the concentration that inhibits the measured activity by half. The low end stands for inhibition by little substance, the high end for a need for much substance. For `COc1cc2nccc(Oc3ccc(NC(=O)Nc4ccc(F)cc4F)c(C)c3C)c2cc1OC` [Example 24, N-(2,4-Difluorophenyl)-N′-{4-[(6,7-dimethoxy-4-guinolyl)oxy]-2,3-dimethylphenyl}urea], in series [1], the Change in morphosis entry is reported as “(−) (the change in karyomorphosis of cells did not take place at 10 μM)”. For the same molecule, the “TGIR, % (tumor growth inhibition rate)” value in the series on Human glioma cells GL07 amounted to 63%. This molecule also showed an IC50 in series [2] of 0.6 nM.
For `COc1ccc(NC(=O)Nc2cc(C)c(Oc3ccnc4cc(OC)c(OC)cc34)cc2C)c(OC)n1` [Example 45, N-(2,6-Dimethoxy-3-pyridyl)-N′-{4-[(6,7-dimethoxy-4-quinolyl)oxy]-2,5-dimethylphenyl}urea], in series [1], the Change in morphosis entry is given as “(−) (the change in karyomorphosis of cells did not take place at 10 μM)”. Half-maximal inhibition in series [2] (Endothelial cell) (IC50) was put at 2 nM.
Consider `COc1cc2c(Oc3cc(C)c(NC(=O)Nc4ccc(F)cc4F)cc3C)ccnc2cc1OCCN1CCOCC1` [Example 52, N-(2,4-Difluorophenyl)-N′-(4-{[6-methoxy-7-(2-morpholinoethoxy)-4-guinolyl]oxy}-2,5-dimethylphenyl)urea], for which, in series [1], the Change in morphosis entry was “(−) (the change in karyomorphosis of cells did not take place at 10 μM)”. In series [2], the IC50 stood at 4.4 nM.
With `COc1ccccc1NC(=O)Nc1cc(C)c(Oc2ccnc3cc(OCCN4CCOCC4)c(OC)cc23)cc1C` [Example 53, N-(4-{[6-Methoxy-7-(2-morpholinoethoxy)-4-quinolyl]oxy}-2,5-dimethylphenyl)-N′-(2-methoxyphenyl)urea], the Change in morphosis result in series [1] was “(−) (the change in karyomorphosis of cells did not take place at 10 μM)”. The molecule further registered a half-maximal inhibitory concentration (IC50) in series [2] (Endothelial cell) of 5.9 nM.
With `COc1cc2nccc(Oc3ccc(NC(=O)Nc4ccc(C)cn4)c(C)c3C)c2cc1OC` [Example 34, N-{4-[(6,7-Dimethoxy-4-guinolyl)oxy]-2,3-dimethylphenyl}-N′-(5-methyl-2-pyridyl)urea], the Change in morphosis entry in series [1] is given as “(−) (the change in karyomorphosis of cells did not take place at 10 μM)”. The IC50 in series [2] stood at 4.2 nM.
On to `COc1cc2nccc(Oc3ccc(NC(=O)Nc4ccccn4)c(C)c3C)c2cc1OC` [Example 33, N-{4-[(6,7-Dimethoxy-4-guinolyl)oxy]-2,3-dimethylphenyl}-N′-(2-pyridyl)urea], for which the Change in morphosis entry in series [1] is reported as “(−) (the change in karyomorphosis of cells did not take place at 10 μM)”. The molecule also showed an IC50 in series [2] of 3.5 nM.
Regarding `COc1cc2nccc(Oc3ccc(NC(=O)Nc4cccc(C)n4)c(Cl)c3)c2cc1OC` [Example 21, N-{2-Chloro-4-[(6,7-dimethoxy-4-quinolyl)oxy]phenyl}-N′-(6-methyl-2-pyridyl)urea], the Change in morphosis entry in series [1] is reported as “(−) (the change in karyomorphosis of cells did not take place at 10 μM)”. For the same molecule, half-maximal inhibition in series [2] (Endothelial cell) (IC50) required 3.4 nM.
The corresponding values for `COc1ccccc1NC(=O)Nc1cc(C)c(Oc2ccnc3cc(OC)c(OC)cc23)cc1C` [Example 43, N-{4-[(6,7-Dimethoxy-4-quinolyl)oxy]-2,5-dimethylphenyl}-N′-(2-methoxyphenyl)urea] are “(−) (the change in karyomorphosis of cells did not take place at 10 μM)” and 3.8 nM.
For `COc1cc2nccc(Oc3ccc(NC(=O)Nc4ccc(Cl)cc4C)c(C)c3C)c2cc1OC` [Example 32, N-(4-Chloro-2-methylphenyl)-N′-{4-[(6,7-dimethoxy-4-guinolyl)oxy]-2,3-dimethylphenyl}urea], the Change in morphosis entry in series [1] is on record as “(−) (the change in karyomorphosis of cells did not take place at 10 μM)”. Half-maximal inhibition in series [2] (IC50) required 7.3 nM.
Consider `CCCNC(=O)Nc1ccc(Oc2ccnc3cc(OC)c(OC)cc23)cc1[N+](=O)[O-]` [Example 47, N-{4-[(6,7-Dimethoxy-4-guinolyl)oxy]-2-nitrophenyl}-N′-propylurea], for which, in series [1], the Change in morphosis result was “(−) (the change in karyomorphosis of cells did not take place at 10 μM)”. Besides, in series [2], the IC50 is 4 nM.
With `COCCOc1cc2nccc(Oc3cc(C)c(NC(=O)Nc4ccccc4OC)cc3C)c2cc1OC` [Example 59, N-(4-{[6-Methoxy-7-(2-methoxyethoxy)-4-quinolyl]oxy}-2,5-dimethylphenyl)-N′-(2-methoxyphenyl)-urea], the Change in morphosis result in series [1] is “(−) (the change in karyomorphosis of cells did not take place at 10 μM)”. The IC50 in series [2] (Endothelial cell) came out at 5.8 nM.
On the same counts, the results for `COc1cc2nccc(Oc3ccc(NC(=O)Nc4cccc(C)n4)c(C)c3C)c2cc1OC` [Example 35, N-{4-[(6,7-Dimethoxy-4-quinolyl)oxy]-2,3-dimethylphenyl}-N′-(6-methyl-2-pyridyl)urea] are “(−) (the change in karyomorphosis of cells did not take place at 10 μM)” and 3.7 nM.
As to `COCCOc1cc2nccc(Oc3ccc(NC(=O)Nc4ccccc4OC)c(Cl)c3)c2cc1OC` [Example 55, N-(2-Chloro-4-{[6-methoxy-7-(2-methoxyethoxy)-4-quinolyl]oxy}phenyl)-N′-(2-methoxyphenyl)urea], in series [1], the Change in morphosis entry was “(−) (the change in karyomorphosis of cells did not take place at 10 μM)”. In addition, in series [2] (Endothelial cell), the midpoint of inhibition, the IC50, lay at 2.8 nM.
Regarding `COc1ccc(NC(=O)Nc2ccc(Oc3ccnc4cc(OC)c(OC)cc34)c(C)c2C)cc1` [Example 36, N-{4-[(6,7-Dimethoxy-4-guinolyl)oxy]-2,3-dimethylphenyl}-N′-(4-methoxyphenyl)urea], the Change in morphosis entry in series [1] is listed as “(−) (the change in karyomorphosis of cells did not take place at 10 μM)”. The molecule also gave an IC50 in series [2] of 3.3 nM.
As to `COc1cc2nccc(Oc3ccc(NC(=O)Nc4cccc(F)c4OC)c(C)c3C)c2cc1OC` [Example 26, N-{4-[(6,7-Dimethoxy-4-guinolyl)oxy]-2,3-dimethylphenyl}-N′-(3-fluoro-2-methoxyphenyl)urea], the Change in morphosis result in series [1] is on record as “(−) (the change in karyomorphosis of cells did not take place at 10 μM)”. Half-maximal inhibition in series [2] (IC50) required 5.3 nM.
`COc1ccccc1NC(=O)Nc1ccc(Oc2ccnc3cc(OC)c(OC)cc23)c(C)c1C` [Example 30, N-{4-[(6,7-Dimethoxy-4-guinolyl)oxy]-2,3-dimethylphenyl}-N′-(2-methoxyphenyl)urea]: in series [1], the Change in morphosis entry is “(−) (the change in karyomorphosis of cells did not take place at 10 μM)”. Further, the IC50 in series [2] was 1.7 nM.
In the case of `COc1cc2nccc(Oc3ccc(NC(=O)Nc4ccc(C)cn4)c(Cl)c3)c2cc1OC` [Example 20, N-{2-Chloro-4-[(6,7-dimethoxy-4-guinolyl)oxy]phenyl}-N′-(5-methyl-2-pyridyl)urea], the Change in morphosis result in series [1] is given as “(−) (the change in karyomorphosis of cells did not take place at 10 μM)”. Also, in series [2], the IC50 came out at 8.5 nM.
The corresponding values for `COCCOc1cc2nccc(Oc3cc(C)c(NC(=O)Nc4ccc(F)cc4F)cc3C)c2cc1OC` [Example 58] are “(−) (the change in karyomorphosis of cells did not take place at 10 μM)” and 5.1 nM.
As to `COc1cc2nccc(Oc3c(Cl)cc(NC(=O)Nc4ccc(F)cc4F)cc3Cl)c2cc1OC` [Example 49, N-{3,5-Dichloro-4-[(6,7-dimethoxy-4-quinolyl)oxy]phenyl}-N′-(2,4-difluorophenyl)urea], in series [1], the Change in morphosis result was “(−) (the change in karyomorphosis of cells did not take place at 10 μM)”. Besides, in series [2] (Endothelial cell), the IC50 came to 4.3 nM.
As for `COc1cc2nccc(Oc3ccc(NC(=O)Nc4ccccc4C)c(C)c3C)c2cc1OC` [Example 31, N-{4-[(6,7-Dimethoxy-4-guinolyl)oxy]-2,3-dimethylphenyl}-N′-(2-methylphenyl)urea], the Change in morphosis result in series [1] is recorded as “(−) (the change in karyomorphosis of cells did not take place at 10 μM)”. In series [2], this molecule displayed an IC50 of 2.5 nM.
With `COc1cc2nccc(Oc3cc(C)c(NC(=O)Nc4cccc(F)c4OC)cc3C)c2cc1OC` [Example 41, N-{4-[(6,7-Dimethoxy-4-quinolyl)oxy]-2,5-dimethylphenyl}-N′-(3-fluoro-2-methoxyphenyl)urea], the Change in morphosis entry in series [1] was “(−) (the change in karyomorphosis of cells did not take place at 10 μM)”. The molecule further returned an IC50 in series [2] (Endothelial cell) of 4.9 nM.
The corresponding values for `COc1cc2nccc(Oc3cc(C)c(NC(=O)Nc4ccc(F)cc4C)cc3C)c2cc1OC` [Example 40, N-{4-[(6,7-Dimethoxy-4-quinolyl)oxy]-2,5-dimethylphenyl}-N′-(4-fluoro-2-methylphenyl)urea] are “(−) (the change in karyomorphosis of cells did not take place at 10 μM)” and 12 nM.
Turning to `COc1ccc(NC(=O)Nc2cc(C)c(Oc3ccnc4cc(OC)c(OC)cc34)cc2C)cc1` [Example 46, N-{4-[(6,7-Dimethoxy-4-quinolyl)oxy]-2,5-dimethylphenyl}-N′-(4-methoxyphenyl)urea], the Change in morphosis result in series [1] was “(−) (the change in karyomorphosis of cells did not take place at 10 μM)”. For the same molecule, in series [2] (Endothelial cell), the IC50 was determined as 4.3 nM.
In the case of `COc1ccc(NC(=O)Nc2ccc(Oc3ccnc4cc(OC)c(OC)cc34)cc2Cl)cc1.Cl` [Example 22, N-{2-Chloro-4-[(6,7-dimethoxy-4-quinolyl)oxy]phenyl}-N′-(4-methoxyphenyl)urea hydrochloride], the Change in morphosis result in series [1] is recorded as “(−) (the change in karyomorphosis of cells did not take place at 10 μM)”. The molecule further displayed an IC50 in series [2] (Endothelial cell) of 0.4 nM.
